Test results taken from PubChem BioAssay (NCI).
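How tested: cells in 96-well plates exposed to compound for 48 hours at five concentrations. GI50 = concentration required for 50% inhibition of growth. TGI marks complete inhibition of growth.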

Experiments:
Test in all cases: NCI-60 cell line screen, 48 h
[1] = tested on: SR leukemia
[2] = tested on: HCC-2998 colon
[3] = tested on: MOLT-4 leukemia
[4] = tested on: SF-539 CNS
[5] = tested on: OVCAR-8 ovarian
[6] = tested on: SNB-75 CNS
[7] = tested on: SK-MEL-28 melanoma
[8] = tested on: UACC-257 melanoma
[9] = tested on: PC-3 prostate
[10] = tested on: NCI-H226 lung
[11] = tested on: SW-620 colon
[12] = tested on: KM12 colon
[13] = tested on: SK-MEL-2 melanoma
[14] = tested on: HT29 colon
[15] = tested on: T-47D breast
[16] = tested on: EKVX NSCLC
[17] = tested on: UO-31 renal
[18] = tested on: HOP-62 NSCLC
[19] = tested on: A498 renal
[20] = tested on: HCT-116 colon
[21] = tested on: OVCAR-3 ovarian
[22] = tested on: SF-268 CNS
[23] = tested on: SN12C renal
[24] = tested on: HS 578T breast
[25] = tested on: SNB-19 CNS
[26] = tested on: CCRF-CEM leukemia
[27] = tested on: K-562 leukemia
[28] = tested on: MDA-MB-231 breast
[29] = tested on: OVCAR-5 ovarian
[30] = tested on: RXF 393 renal
[31] = tested on: NCI/ADR-RES ovarian
[32] = tested on: HL-60(TB) leukemia
[33] = tested on: SK-MEL-5 melanoma
[34] = tested on: LOX IMVI melanoma
[35] = tested on: MCF7 breast
[36] = tested on: A549 NSCLC
[37] = tested on: COLO 205 colon
[38] = tested on: ACHN renal
[39] = tested on: DU-145 prostate
[40] = tested on: UACC-62 melanoma
[41] = tested on: IGROV1 ovarian
[42] = tested on: CAKI-1 renal
[43] = tested on: M14 melanoma
[44] = tested on: NCI-H522 lung
[45] = tested on: 786-0 renal
[46] = tested on: TK-10 renal
[47] = tested on: BT-549 breast
[48] = tested on: SF-295 CNS
[49] = tested on: U251 CNS
[50] = tested on: RPMI-8226 leukemia
[51] = tested on: NCI-H460 lung
[52] = tested on: HOP-92 NSCLC
[53] = tested on: HCT-15 colon
[54] = tested on: NCI-H23 lung
[55] = tested on: MALME-3M melanoma
[56] = tested on: OVCAR-4 ovarian
[57] = tested on: SK-OV-3 ovarian
[58] = tested on: MDA-MB-435

In the case of `CCS(=O)(=O)c1ccc(OC)c(Nc2ncc(-c3cccc(F)c3)o2)c1`, the GI50 [1] is reported as greater than 25 µM, the TGI [1] is reported as greater than 25 µM and the GI50 [2] is reported as greater than 25 µM. The TGI [2] was greater than 25 µM, the GI50 [3] was greater than 25 µM and the TGI [3] was greater than 25 µM. The GI50 [4] was greater than 25 µM, the TGI [4] was greater than 25 µM and the GI50 [5] was greater than 25 µM. For the same compound, the TGI [5] was greater than 25 µM, the GI50 [6] was greater than 10.6 µM and the TGI [6] was greater than 25 µM. For the same compound, the GI50 [7] was greater than 25 µM, the TGI [7] was greater than 25 µM and the GI50 [8] was greater than 25 µM. The TGI [8] was greater than 25 µM, the GI50 [9] was greater than 25 µM and the TGI [9] was greater than 25 µM. For the same compound, the GI50 [10] was 0.513 µM, the TGI [10] was greater than 25 µM and the GI50 [11] was greater than 25 µM. For the same compound, the TGI [11] was greater than 25 µM, the GI50 [12] was 0.649 µM and the TGI [12] was greater than 25 µM. The GI50 [13] was greater than 25 µM, the TGI [13] was greater than 25 µM and the GI50 [14] was greater than 25 µM. It also gave a TGI [14] greater than 25 µM, a GI50 [15] greater than 25 µM and a TGI [15] greater than 25 µM. It also gave a GI50 [16] greater than 25 µM, a TGI [16] greater than 25 µM and a GI50 [17] greater than 25 µM. The TGI [17] was greater than 25 µM, the GI50 [18] was greater than 25 µM and the TGI [18] was greater than 25 µM. For the same compound, the GI50 [19] was 0.34 µM, the TGI [19] was greater than 25 µM and the GI50 [20] was greater than 25 µM. The TGI [20] was greater than 25 µM, the GI50 [21] was greater than 25 µM and the TGI [21] was greater than 25 µM. It also gave a GI50 [22] greater than 25 µM, a TGI [22] greater than 25 µM and a GI50 [23] greater than 25 µM. It also gave a TGI [23] greater than 25 µM, a GI50 [24] of 2.5 µM and a TGI [24] greater than 22.3 µM. It also gave a GI50 [25] greater than 25 µM, a TGI [25] greater than 25 µM and a GI50 [26] greater than 25 µM. For the same compound, the TGI [26] was greater than 25 µM, the GI50 [27] was greater than 25 µM and the TGI [27] was greater than 25 µM. The GI50 [28] was greater than 25 µM, the TGI [28] was greater than 25 µM and the GI50 [29] was greater than 25 µM. The TGI [29] was greater than 25 µM, the GI50 [30] was greater than 20.8 µM and the TGI [30] was greater than 25 µM. The GI50 [31] was greater than 25 µM, the TGI [31] was greater than 25 µM and the GI50 [32] was greater than 25 µM. It also gave a TGI [32] greater than 25 µM, a GI50 [33] greater than 25 µM and a TGI [33] greater than 25 µM. For the same compound, the GI50 [34] was greater than 25 µM, the TGI [34] was greater than 25 µM and the GI50 [35] was greater than 25 µM. For the same compound, the TGI [35] was greater than 25 µM, the GI50 [36] was greater than 25 µM and the TGI [36] was greater than 25 µM. It also gave a GI50 [37] greater than 25 µM, a TGI [37] greater than 25 µM and a GI50 [38] greater than 25 µM. The TGI [38] was greater than 25 µM, the GI50 [39] was greater than 25 µM and the TGI [39] was greater than 25 µM. It also gave a GI50 [40] greater than 25 µM, a TGI [40] greater than 25 µM and a GI50 [41] greater than 25 µM. For the same compound, the TGI [41] was greater than 25 µM, the GI50 [42] was greater than 25 µM and the TGI [42] was greater than 25 µM. For the same compound, the GI50 [43] was greater than 25 µM, the TGI [43] was greater than 25 µM and the GI50 [44] was greater than 25 µM. For the same compound, the TGI [44] was greater than 25 µM, the GI50 [45] was greater than 25 µM and the TGI [45] was greater than 25 µM. For the same compound, the GI50 [46] was greater than 25 µM, the TGI [46] was greater than 25 µM and the GI50 [47] was greater than 25 µM. The TGI [47] was greater than 25 µM, the GI50 [48] was greater than 25 µM and the TGI [48] was greater than 25 µM. It also gave a GI50 [49] greater than 25 µM, a TGI [49] greater than 25 µM and a GI50 [50] greater than 25 µM. The TGI [50] was greater than 25 µM, the GI50 [51] was greater than 25 µM and the TGI [51] was greater than 25 µM. For the same compound, the GI50 [52] was greater than 25 µM, the TGI [52] was greater than 25 µM and the GI50 [53] was greater than 25 µM. For the same compound, the TGI [53] was greater than 25 µM, the GI50 [54] was greater than 25 µM and the TGI [54] was greater than 25 µM. The GI50 [55] was greater than 25 µM, the TGI [55] was greater than 25 µM and the GI50 [56] was greater than 25 µM. It also gave a TGI [56] greater than 25 µM, a GI50 [57] greater than 25 µM and a TGI [57] greater than 25 µM. For the same compound, the GI50 [58] was greater than 25 µM and the TGI [58] was greater than 25 µM.
